Test results: patent US20250313544A1, “INHIBITORS OF GLUTATHIONE S-TRANSFERASE ZETA 1 (GSTZ1) AND METHODS OF USE” (H. LEE MOFFITT CANCER CENTER AND RESEARCH INSTITUTE, INC., priority 2022, published 2025)

Columns and labels:
[1] = tested on: H1792 LUAD cells; assay: Chemical proteomics target profiling in live H1792 cells (label-free LC-MS/MS, comparison with control probe 22 and panel-wide cross-comparison); format: binding, human
Experimental: Cells were grown in 10 cm dishes to ˜90% confluence at the time of treatment. Cells were carefully washed twice with Dulbecco's phosphate buffered saline (DPBS) and replenished with fresh serum-free RPMI 1640 media containing indicated probes ([…]), competitors, or DMSO. Without competitors, cells were incubated with probes for 30 min at 37° C. and then exposed to 365 nm UV light for 15 min on ice. With competitors, cells were pre-treated with competitors for 30 min and photoactivated for 15 min. Probes were then added to cells for an additional 30 min incubation. For no UV experiments, cells were incubated for 15 min under ambient light. Cells were harvested in cold DPBS and pellets were washed with cold DPBS (2 X). Pellets were either directly processed or kept frozen at −80° C. until use. Cells pellets were lysed for 30 min in cold DPBS (100-300 uL) per culture dish supplemented with 1% NP-40, followed by sonication (5 pulses, 4 s on, 20 s off, output setting=4). Lysates were centrifuged at 20,817×g for 20 min, and supernatant (soluble proteome) was used for further processing. Protein concentrations were determined using Bradford assays.
Protein pellets were transferred to 5 mL microcentrifuge tubes and then resuspended in a freshly-prepared solution of proteomics-grade urea (320 μL, 6 M Urea in DPBS) containing 80 μL of 10% SDS and dissolved by sonication. To each solution, 4 mL DPBS was added (final conc: 0.2%, total volume) and incubated with pre-equilibrated NeutrAvidin agarose resin (100 μL 1:1 slurry, Pierce, Cat. 29201) for 2 hrs at ambient temperature on a rotator. The NeutrAvidin beads were collected by centrifugation (1,400×g, 2 min) and sequentially washed with 0.2% SDS in DPBS (2×2 mL), detergent-free DPBS (2×2 mL), and 50 mM ammonium bicarbonate (AMBIC, 2×2 mL). Beads were resuspended with 200 μL 50 mM AMBIC and incubated with TCEP 50 μL (100 mM in 50 mM AMBIC) for 30 min at 37° C. Iodoacetamide (50 μL of 200 mM in 50 mM AMBIC) was added and incubated for 30 min at ambient temperature. The beads were again washed with 2×1 mL 50 mM AMBIC and resuspended in 100 μL of fresh 50 mM AMBIC and treated with 2 μg of sequencing grade modified trypsin (Promega, #V5111) at 37° C. overnight. These samples were acidified with formic acid (final conc: 5%) and centrifuged (1,000×g, 2 min). The supernatant was collected and desalted through ZIPTIPs, and the desalted peptide mixture were dried in vacuum and reconstituted with HPLC buffer (2% acetonitrile, 0.1% formic acid) for LC-MS/MS analysis. Tryptic peptides of avidin were excluded from MS2 analysis to maximize detection of the protein targets (Table S7). Samples were analyzed using LC-MS/MS after being spiked with 50 fmol/uL PRTC standards (88320, Pierce Retention Time Calibration Mixture, Thermo Fisher, MA). A nanoflow ultra high performance liquid chromatograph and nanoelectrospray orbitrap mass spectrometer (RSLCnano and Q Exactive plus, Thermo) were used for LC-MS/MS. The sample was loaded onto a pre-column (C18 PepMap100, 2 cm length×100 μm ID packed with C18 reversed-phase resin, 5 μm particle size, 100 Å pore size) and washed for 8 minutes with aqueous 2% acetonitrile and 0.1% formic acid. Trapped peptides were eluted onto the analytical column, (C18 PepMap100, 25 cm length×75 μm ID, 2 μm particle size, 100 Å pore size, Thermo). A 120-minute gradient was programmed as: 95% solvent A (aqueous 2% acetonitrile+0.1% formic acid) for 8 minutes, solvent B (aqueous 90% acetonitrile+0.1% formic acid) from 5% to 38.5% in 90 minutes, then solvent B from 50% to 90% B in 7 minutes and held at 90% for 5 minutes, followed by solvent B from 90% to 5% in 1 minute and re-equilibration for 10 minutes using a flow rate of 300 nl/min. Spray voltage was 1900 V. Capillary temperature was 275° C. S lens RF level was set at 40. Top 16 tandem mass spectra were collected in a data-dependent manner. The resolution for MS and MS/MS were set at 70,000 and 17,500 respectively. […]

[2] = tested on: H1792 cells harboring KRAS G12C; assay: Cell viability assay (CellTiter-Glo) in H1792 cells; format: cell-based, human; conditions: probe combined with sotorasib in H1792 cells, dose of 50 μM (FIG. 9D)
Experimental: (§1) Cells were seeded in Corning 384-well black walled/clear bottom microplates with a density of 1,000 cells/well and treated with indicated drugs and concentrations following cell attachment for 24 h. After 72 h or 96 h, as indicated, cell viability was evaluated with CellTiter-Glo (Promega, Madison, WI) according to manufacturer's recommendations. An M5 Spectramax plate reader (Molecular devices) was used to read the plates with 500 ms integration. Data was processed and analyzed using Excel and GraphPad Prism 9.0.

[3] = tested on: HCC366 cells harboring mutated DDR2; assay: Cell viability assay (CellTiter-Glo) in HCC366 cells; format: cell-based, human; conditions: probe combined with dasatinib in HCC366 cells, dose of 10 μM (FIG. 9F)
Experimental: as §1

Question: Which results are given for C#CCCC1(CCC(=O)N2CCC(COc3nc4ccccc4nc3C)CC2)N=N1 [Probe 17, 3-(3-(but-3-yn-1-yl)-3H-diazirin-3-yl)-1-(4-(((3-methylquinoxalin-2-yl)oxy)methyl)piperidin-1-yl)propan-1-one]?
Answer: prominent target protein predominantly enriched by the probe ([1]; compared to control probe and probe panel): GSTZ1; selectivity of probe for GSTZ1 ([1]; many other enriched putative targets vs. negative control probe alone): should not be considered a selective probe for GSTZ1; sensitization of cells towards sotorasib [2]: significantly enhanced the sensitivity; sensitization of cells towards dasatinib [3]: significantly enhanced the sensitivity
